Source: ChEMBL document CHEMBL4673234, “Design, synthesis, biological evaluation and molecular docking of new uracil analogs-1,2,4-oxadiazole hybrids as potential anticancer agents” (Bioorg Med Chem Lett, 2020)
pIC50: −log10 of the molar value.

Tests used:
[1] = test system: MCF7; test: Cytotoxicity against human MCF7 cells assessed as reduction in cell viability incubated for 48 hrs; assay type: functional, cell-based; conditions: MCF7, 48 h
[2] = test system: A549; test: Cytotoxicity against human A549 cells assessed as reduction in cell viability incubated for 48 hrs; assay type: functional, cell-based; conditions: A549, 48 h
[3] = test system: A-375; test: Cytotoxicity against human A-375 cells assessed as cell viability at 5 uM incubated for 48 hrs (reference value: 100 %); assay type: functional; conditions: read-out: Activity
[4] = test system: MDA-MB-231; test: Cytotoxicity against human MDA-MB-231 cells assessed as reduction in cell viability incubated for 48 hrs; assay type: functional, cell-based; conditions: MDA-MB-231, 48 h
[5] = test system: HT-1080; test: Cytotoxicity against human HT-1080 cells assessed as reduction in cell viability incubated for 48 hrs; assay type: functional, cell-based; conditions: HT-1080, 48 h
[6] = test system: A-375; test: Cytotoxicity against human A-375 cells assessed as cell viability at 10 uM incubated for 48 hrs (reference value: 100 %); assay type: functional; conditions: read-out: Activity

SMILES	pIC50 [1]	pIC50 [2]	viability at 5 µM [3] [%]	pIC50 [4]	pIC50 [5]	viability at 10 µM [6] [%]
COc1ccc(-c2ccc(-c3nc(-c4ccc(Cn5cc(F)c(=O)[nH]c5=O)cc4)no3)cc2)cc1	6.05	5.40	29	5.19	6.01	23
O=c1ccn(Cc2ccc(-c3noc(-c4ccccc4)n3)cc2)c(=O)[nH]1			76			72
COc1ccc(-c2nc(-c3ccc(Cn4ccc(=O)[nH]c4=O)cc3)no2)cc1			59			55
N/C(=N\O)c1ccc(Cn2ncc(=O)[nH]c2=O)cc1			100			94
COc1ccc(-c2nc(-c3ccc(Cn4ncc(=O)[nH]c4=O)cc3)no2)cc1			53			55
COc1cccc2c1C(=O)c1c(O)c3c(c(O)c1C2=O)C[C@@](O)(C(=O)CO)C[C@@H]3O[C@H]1C[C@H](N)[C@H](O)[C@H](C)O1 [DOXORUBICIN]	5.74	5.57		5.47	6.03	
